Measurements taken from ChEMBL document CHEMBL1158772, “Benzophenones from Hypericum carinatum” (J Nat Prod, 2005).
Active and inactive are the calls of the source. The rule behind the calls is not given here.

Columns and labels:
Type in all cases: functional
[1] = Antioxidant activity assessed as ABAP free radical scavenging measured by TRAP assay
[2] = Antioxidant activity assessed as ABAP free radical scavenging measured at 3.2 mM by TRAP assay
[3] = Antioxidant activity assessed as ABAP free radical scavenging measured at 1.6 mM by TRAP assay

SMILES	Activity [1]	Activity [2]	Activity [3]
CC(C)C(=O)C1=C(O)C(Cc2c(O)c3c(c(C(=O)C(C)C)c2O)OC(C)(C)C=C3)=C(O)C(C)(C)C1=O	inactive		
O=c1c(O)c(-c2ccc(O)c(O)c2)oc2cc(O)cc(O)c12		Active	
Cc1c(O)c(C(=O)c2ccccc2)c(O)c2c1OC(C)(C)C=C2		Active	Active
Cc1c(O)c2c(c(C(=O)c3ccccc3)c1O)OC(C)(C)C=C2	inactive		
